Measurements taken from patent publication US10828350B1, “Topical and orally administered protease inhibitors and bacterial vectors for the treatment of disorders and methods of treatment” (priority 2014, dated 2020).

Test system: trypsin
Assay: Petri plate assay detecting zones of protease protection by protease inhibitors or bacterial strains after flooding with trypsin
Assay type: biochemical
Details: for relative size of zone of inhibition (diffusion zone): casein plates, to a lesser degree gelatin plates, compared among leupeptin, aprotinin and α-2-macroglobulin
From the text: Because the protocol is destructive to the plate assayed, a duplicate or replica plate is generated and retained for identification and further analysis of the strains using methods known to those skilled in the arts. The initial step is the exposure of the protease detection plate to a protease inhibitor or bacterial growth. Either commercially available protease inhibitor peptides or growth of bacterial strains on the protease detection plates can be detected. […] The bacterial strains Photorabdus (Xenorhabdus) luminescens strain Hm primary and secondary forms where the secondary and not the primary form is known to secrete a protease inhibitor and the other strains are negative controls (Wee et al. 2000, A new broad-spectrum protease inhibitor from the entomopathogenic bacterium Photorhabdus luminescens. Microbiology 146: 3141-3147), Citrobacter freundii (ATCC #33128), Staphylococcus aureus, S. epidermidis and Enterococcusfaecalis are allowed to grow two days at 30° C. in air.
The base media can be any microbiological media designed to facilitate the growth of cultivable microorganism; different media can be used to favor different strains as appropriate (Kreig, 1981, Chapter 8, Enrichment and Isolation, p. 112-142 in Manual of Methods for General Bacteriology, Gerhardt et al., eds, American Society for Microbiology, Washington, D.C.). Variations on the type of protease being targeted, the protease substrate and cognate inhibitors are shown in Table 1 and used as a guide in the modification of media. A casein base media based on that of Vijayaraghavan and Vincent (2013, A simple method for the detection of protease activity on agar plates using bromochresol green dye, J. Biochem. Tech. 4: 628-630), which contained 5 grams of peptone, 1.5 grams of yeast extract, 1.5 grams of sodium chloride per liter with, except that the casein 0.5% is used (instead of 1.0%) and dissolved as described by Montville (1983, Dual-substrate plate diffusion assay for proteases, Appl Environ Microbiol 45: 200-204) using 0.02 N NaOH. When bromochresol green (BCG) is added directly to the media, 0.0015% is used. BCG preincorporated into the media as well as post incubation addition of a BCG dye reagent containing 0.028% BCG dissolved in 0.56% (w/v) succinic acid, 0.1% (w/v) NaOH (Vijayaraghavan and Vincent; 2013) with 0.6% Brij-35 and then acidified to pH 4.2 can also be used following exposure to a protease inhibitor or bacterial growth and subsequent exposure to a protease. After staining and then destaining in water the by completely removing the agar from the lower plastic, the plates are observed for the presence and absence of protein. Ponseau S staining by flooding the plate with 5 ml of the stain containing 0.1% Ponseau S (PS; Sigma, St. Louis, Mo.) and 5% acetic acid in water for 1-2 hrs and then marking the agar with a 23 ga syringe needle dipped in India ink at a corresponding register marked on the plastic petri plate, removing the agar from the plate and destaining overnight in water before observing them and is highly sensitive.
A gelatin based media (Medina and Baresi 2007, Rapid identification of gelatin and casein hydrolysis using TCA, J Microbiol Meth 69: 391-393) which uses 40 grams per liter of tryptic soy agar powder without glucose (Becton Dickinson, Sparks, Md.) modified to contain 8 g of gelatin (instead of 16 g) per liter may be preferable for certain organisms depending upon their growth requirements and is used as is appropriate. Approximately 5 ml of 20% trichloroacetic acid (TCA; Thermo Fisher, Waltham, Mass.) was used for protein precipitation per petri plate. This media can also be combined with preincorporated BCG, or post-incubation BCG dye reagent or Ponseau S, each as described above for the casein plates. […]

[1] = BCG-containing plates further stained with PS, 0.625 mg/ml trypsin for casein, 0.0625 mg/ml for gelatin (FIG. 2B)
[2] = casein plates with preincorporated BCG, before PS staining (FIG. 2A)

## CC(=O)N[C@@H](CC(C)C)C(=O)N[C@@H](CC(C)C)C(=O)N[C@H](C=O)CCCNC(=N)N [Leupeptin, leupeptin]
[1]
  visualization of zone of protease protection: able to visualize
  relative size of zone of inhibition (diffusion zone): notably larger

## CC(C)C[C@H](NC(=O)[C@@H](O)[C@H](N)Cc1ccccc1)C(=O)O [bestatin]
[1]
  visualization of zone of protease protection: no staining

## aprotinin [Aprotonin]
[1]
  visualization of zone of protease protection: able to visualize
[2]
  visualization of zone of protease protection: faintly visualize

B1: α-2-macroglobulin (protein, UniProt P01023 24-1474, looked up)
Alpha-2-macroglobulin: SVSGKPQYMVLVPSLLHTETTEKGCVLLSYLNETVTVSASLESVRGNRSLFTDLEAENDVLHCVAFAVPKSSSNEEVMFLTVQVKGPTQEFKKRTTVMVKNEDSLVFVQTDKSIYKPGQTVKFRVVSMDENFHPLNELIPLVYIQDPKGNRIAQWQSFQLEGGLKQFSFPLSSEPFQGSYKVVVQKKSGGRTEHPFTVEEFVLPKFEVQVTVPKIITILEEEMNVSVCGLYTYGKPVPGHVTVSICRKYSDASDCHGEDSQAFCEKFSGQLNSHGCFYQQVKTKVFQLKRKEYEMKLHTEAQIQEEGTVVELTGRQSSEITRTITKLSFVKVDSHFRQGIPFFGQVRLVDGKGVPIPNKVIFIRGNEANYYSNATTDEHGLVQFSINTTNVMGTSLTVRVNYKDRSPCYGYQWVSEEHEEAHHTAYLVFSPSKSFVHLEPMSHELPCGHTQTVQAHYILNGGTLLGLKKLSFYYLIMAKGGIVRTGTHGLLVKQEDMKGHFSISIPVKSDIAPVARLLIYAVLPTGDVIGDSAKYDVENCLANKVDLSFSPSQSLPASHAHLRVTAAPQSVCALRAVDQSVLLMKPDAELSASSVYNLLPEKDLTGFPGPLNDQDNEDCINRHNVYINGITYTPVSSTNEKDMYSFLEDMGLKAFTNSKIRKPKMCPQLQQYEMHGPEGLRVGFYESDVMGRGHARLVHVEEPHTETVRKYFPETWIWDLVVVNSAGVAEVGVTVPDTITEWKAGAFCLSEDAGLGISSTASLRAFQPFFVELTMPYSVIRGEAFTLKATVLNYLPKCIRVSVQLEASPAFLAVPVEKEQAPHCICANGRQTVSWAVTPKSLGNVNFTVSAEALESQELCGTEVPSVPEHGRKDTVIKPLLVEPEGLEKETTFNSLLCPSGGEVSEELSLKLPPNVVEESARASVSVLGDILGSAMQNTQNLLQMPYGCGEQNMVLFAPNIYVLDYLNETQQLTPEIKSKAIGYLNTGYQRQLNYKHYDGSYSTFGERYGRNQGNTWLTAFVLKTFAQARAYIFIDEAHITQALIWLSQRQKDNGCFRSSGSLLNNAIKGGVEDEVTLSAYITIALLEIPLTVTHPVVRNALFCLESAWKTAQEGDHGSHVYTKALLAYAFALAGNQDKRKEVLKSLNEEAVKKDNSVHWERPQKPKAPVGHFYEPQAPSAEVEMTSYVLLAYLTAQPAPTSEDLTSATNIVKWITKQQNAQGGFSSTQDTVVALHALSKYGAATFTRTGKAAQVTIQSSGTFSSKFQVDNNNRLLLQQVSLPELPGEYSMKVTGEGCVYLQTSLKYNILPEKEEFPFALGVQTLPQTCDEPKAHTSFQISLSVSYTGSRSASNMAIVDVKMVSGFIPLKPTVKMLERSNHVSRTEVSSNHVLIYLDKVSNQTLSLFFTVLQDVPVRDLKPAIVKVYDYYETDEFAIAEYNAPCSKDLGNA
[1]
  visualization of zone of protease protection: able to visualize
Casein BCG plate, PS stained (FIGS. 5A and 5B)
  diffusion distance of inhibitor on plate: diffused only a short distance
[2]
  visualization of zone of protease protection: faintly visualize
  relative size of zone of inhibition (diffusion zone): smallest diffusion zone
